US20250032625A1, “HETEROBIFUNCTIONAL MOLECULES AS TEAD INHIBITORS” (Merck Patent GmbH, priority 2021, published 2025)
Read-outs that look alike come from different tables or passages of the source.

How the values were obtained:
[1] = biological target: TEAD1 in SK-HEP1 cells (Homo sapiens (Human), UniProt P28347); test: TEAD degradation in SK-HEP1 cell line (immunofluorescence); assay type: cell-based
Description: (§1) Degradation of TEAD isoform TEAD1 by exemplary compounds which has been determined at different time points in two different cell lines, SK-HEP1 and NCI-H226: For the assay, SK-HEP1 (ATCC HTB-52) and NCI-H226 (ATCC CRL-5826) cells were treated in duplicates with the test compounds in a 10-point dose, 1:3 dilution steps, with the top concentration starting at 30 uM (final concentration in assay). After either 16 or 24 hour incubation at 37° C., 95% rH, and 5% CO2, the cells were fixed with 4% PFA and TEAD1 levels were probed using immunofluorescence. The primary antibody used was Anti-TEF1 (BD, 610293) and the secondary antibody used was Alexa Fluor® 488 Goat Anti-Mouse IgG (H+L) (Molecular Probes, A-11001). Finally, the cell nuclei were co-stained by Hoechst 33258 (Invitrogen, H-3569) and imaged using a high content imager. The amount of TEAD degradation was determined by quantifying the fluorescence intensity levels of Anti-TEF1 in each individual cell per well. DC50 was calculated using curve fitting software Genedata Screener. Cell media: The SK-HEP1 cells were cultured in the following media: MEM, +10% FCS, +1× GlutaMAX, +100 μM NEAA, +10 mM HEPES, +0.5% Pen/Strep. The NCI-H226 cells were cultured in the following media: RPMI 1640, +10% FBS, +1× GlutaMAX, +10 mM HEPES, +0.5% Pen/Strep.

[2] = biological target: TEAD1 in NCI-H226 cells (Homo sapiens (Human), UniProt P28347); test: TEAD degradation in NCI-H226 cell line (immunofluorescence); assay type: cell-based
Description: as §1

[3] = 24 hours, ranges, read-out: DC50 SK-HEP1
[4] = 24 hours, ranges, read-out: DC50 NCI-H226
[5] = 24 h incubation, read-out: DC50 SK-HEP1 24 h
[6] = 24 h incubation, read-out: DC50 NCI-H226 24 h

TEAD1 in SK-HEP1 cells, sequence (P28347 whole entry, canonical isoform): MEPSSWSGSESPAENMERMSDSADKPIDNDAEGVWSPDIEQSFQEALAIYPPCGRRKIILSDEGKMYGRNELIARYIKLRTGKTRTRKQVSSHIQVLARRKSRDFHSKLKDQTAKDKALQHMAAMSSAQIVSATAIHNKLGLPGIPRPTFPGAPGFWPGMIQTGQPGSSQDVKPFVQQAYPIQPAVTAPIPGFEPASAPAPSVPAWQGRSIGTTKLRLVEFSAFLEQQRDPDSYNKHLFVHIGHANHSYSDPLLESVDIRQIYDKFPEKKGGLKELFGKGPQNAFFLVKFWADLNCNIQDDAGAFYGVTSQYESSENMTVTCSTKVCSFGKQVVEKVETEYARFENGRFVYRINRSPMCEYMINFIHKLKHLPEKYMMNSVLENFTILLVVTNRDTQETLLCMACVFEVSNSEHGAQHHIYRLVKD
TEAD1 in NCI-H226 cells, sequence (P28347 whole entry): as the sequence (P28347 whole entry, canonical isoform) above

| Compound | DC50 [1, 3] | DC50 [2, 4] | DC50 [1, 5] | DC50 [2, 6] |
| --- | --- | --- | --- | --- |
| Cn1cc2c3cc(C(=O)NCCOCCOCCOCCOCCOc4ccc5c(c4)C(=O)N(C4CCC(=O)NC4=O)C5=O)ccc3n(-c3ccc(C(F)(F)F)cc3)c2n1 (stereo not drawn) [Compound 88, N-(14-{[2-(2,6-dioxopiperidin-3-yl)-1,3-dioxo-2,3-dihydro-1H-isoindol-5-yl]oxy}-3,6,9,12-tetraoxatetradecan-1-yl)-2-methyl-8-[4-(trifluoromethyl)phenyl]-2H,8H-pyrazolo[3,4-b]indole-5-carboxamide] | 100 to 1000 nM | 100 to 1000 nM |  |  |
| Cc1ncsc1-c1ccc(CNC(=O)[C@@H]2C[C@@H](O)CN2C(=O)[C@@H](NC(=O)COCCOCCOCCOCCOCCOCCNC(=O)c2ccc3c(c2)c2cn(C)nc2n3-c2ccc(C(F)(F)F)cc2)C(C)(C)C)cc1 [Compound 32, (2S,4R)-1-[(2S)-3,3-dimethyl-2-[20-({2-methyl-8-[4-(trifluoromethyl)phenyl]-2H,8H-pyrazolo[3,4-b]indol-5-yl}formamido)-3,6,9,12,15,18-hexaoxaicosanamido]butanoyl]-4-hydroxy-N-{[4-(4-methyl-1,3-thiazol-5-yl)phenyl]methyl}pyrrolidine-2-carboxamide] | 1000 to 3000 nM | 1000 to 3000 nM | 1100 nM |  |
| Cn1cc2c3cc(C(=O)NCCOCCOCCOCCOCCOCCNc4cccc5c4C(=O)N(C4CCC(=O)NC4=O)C5=O)ccc3n(-c3ccc(C(F)(F)F)cc3)c2n1 (stereo not drawn) [Compound 47, N-(17-{[2-(2,6-dioxopiperidin-3-yl)-1,3-dioxo-2,3-dihydro-1H-isoindol-4-yl]amino}-3,6,9,12,15-pentaoxaheptadecan-1-yl)-2-methyl-8-[4-(trifluoro-methyl)phenyl]-2H,8H-pyrazolo[3,4-b]indole-5-carboxamide] | < 100 nM | < 100 nM |  |  |
| Cn1cc2c3cc(C(=O)NCCOCCOCCNC(=O)COc4ccc5c(c4)C(=O)N(C4CCC(=O)NC4=O)C5=O)ccc3n(-c3ccc(C(F)(F)F)cc3)c2n1 (stereo not drawn) [Compound 7, 2-{[2-(2,6-dioxopiperidin-3-yl)-1,3-dioxo-2,3-dihydro-1H-isoindol-5-yl]oxy}-N-(2-{2-[2-({2-methyl-8-[4-(trifluoromethyl)phenyl]-2H,8H-pyrazolo[3,4-b]indol-5-yl}formamido)ethoxy]ethoxy}ethyl)acetamide] | 1000 to 3000 nM | 9000 to 30000 nM | 2400 nM | 20000 nM |
| Cc1ncsc1-c1ccc(CNC(=O)[C@@H]2C[C@@H](O)CN2C(=O)[C@@H](NC(=O)CCCOCCOCCOCCOCCNC(=O)c2ccc3c(c2)c2cn(C)nc2n3-c2ccc(C(F)(F)F)cc2)C(C)(C)C)cc1 [Compound 57, [(2S)-3,3-dimethyl-2-[1-({2-methyl-8-[4-(trifluoromethyl)phenyl]-2H,8H-pyrazolo[3,4-b]indol-5-yl}formamido)-3,6,9,12-tetraoxahexadecan-16-amido]butanoyl]-4-hydroxy-N-{[4-(4-methyl-1,3-thiazol-5-yl)phenyl]-methyl}pyrrolidine-2-carboxamide] | 1000 to 3000 nM | 1000 to 3000 nM |  |  |
| Cn1cc2c3cc(C(=O)NCC#Cc4ccc(N5CCN(CCCC(=O)Nc6ccc7c(c6)CN(C6CCC(=O)NC6=O)C7=O)CC5)nc4)ccc3n(-c3ccc(C(F)(F)F)cc3)c2n1 (stereo not drawn) [Compound 19, N-(3-{6-[4-(3-{[2-(2,6-dioxopiperidin-3-yl)-1-oxo-2,3-dihydro-1H-isoindol-5-yl]carbamoyl}propyl)piperazin-1-yl]pyridin-3-yl}prop-2-yn-1-yl)-2-methyl-8-[4-(trifluoromethyl)phenyl]-2H,8H-pyrazolo[3,4-b]indole-5-carboxamide] | < 100 nM | < 100 nM | 40 nM | 70 nM |
| CCNC(=O)[C@H](Cc1ccccc1)NC(=O)[C@@H]1CCCN1C(=O)[C@@H](NC(=O)[C@H](C)NCCCCCCNC(=O)c1ccc2c(c1)c1cn(C)nc1n2-c1ccc(C(F)(F)F)cc1)C1CCCCC1 [Compound 73, (2S)-2-{[(2S)-1-[(2S)-2-cyclohexyl-2-[(2S)-2-{[6-({2-methyl-8-[4-(trifluoro-methyl)phenyl]-2H,8H-pyrazolo[3,4-b]indol-5-yl}formamido)hexyl]amino}-propanamido]acetyl]pyrrolidin-2-yl]formamido}-N-ethyl-3-phenylpropan-amide] | 3000 to 9000 nM | 9000 to 30000 nM |  |  |
| Cn1cc2c3cc(C(=O)NCCOCCOCCOCCOCCOc4cccc5c4C(=O)N(C4CCC(=O)NC4=O)C5=O)ccc3n(-c3ccc(C(F)(F)F)cc3)c2n1 (stereo not drawn) [Compound 16, N-(14-{[2-(2,6-dioxopiperidin-3-yl)-1,3-dioxo-2,3-dihydro-1H-isoindol-4-yl]oxy}-3,6,9,12-tetraoxatetradecan-1-yl)-2-methyl-8-[4-(trifluoromethyl)phenyl]-2H,8H-pyrazolo[3,4-b]indole-5-carboxamide] | 100 to 1000 nM | 100 to 1000 nM | 250 nM | 600 nM |
| Cc1ncsc1-c1ccc([C@H](C)NC(=O)[C@@H]2C[C@@H](O)CN2C(=O)[C@@H](NC(=O)CCCCCc2cn(CCCCOCCNC(=O)c3ccc4c(c3)c3cn(C)nc3n4-c3ccc(C(F)(F)F)cc3)nn2)C(C)(C)C)cc1 [Compound 82, (2S,4R)-1-[(2S)-3,3-dimethyl-2-[6-(1 {4-[2-({2-methyl-8-[4-(trifluoro-methyl)phenyl]-2H,8H-pyrazolo[3,4-b]indol-5-yl}formamido)ethoxy]butyl}-1H-1,2,3-triazol-4-yl)hexanamido]butanoyl]-4-hydroxy-N-[(1S)-1-[4-(4-methyl-1,3-thiazol-5-yl)phenyl]ethyl]pyrrolidine-2-carboxamide] | 100 to 1000 nM | 100 to 1000 nM |  |  |
| Cn1nc2c3cc(C(=O)NCCOCCOCCOCCOCCNc4cccc5c4C(=O)N(C4CCC(=O)NC4=O)C5=O)ccc3n([C@H]3CC[C@H](C(F)(F)F)CC3)c2n1 (stereo partly drawn) [Compound 95, N-(14-{[2-(2,6-dioxopiperidin-3-yl)-1,3-dioxo-2,3-dihydro-1H-isoindol-4-yl]amino}-3,6,9,12-tetraoxatetradecan-1-yl)-2-methyl-4-[(1r,4r)-4-(trifluoromethyl)cyclohexyl]-2H,4H-[1,2,3]triazolo[4,5-b]indole-7-carboxamide] | 100 to 1000 nM | 100 to 1000 nM |  |  |
| Cn1cc2c3cc(C(=O)NCCOCCOCCOCCOCCNc4cccc5c4C(=O)N(C4CCC(=O)NC4=O)C5=O)ccc3n(-c3ccc(C(F)(F)F)cc3)c2n1 (stereo not drawn) [Compound 28, N-(14-{[2-(2,6-dioxopiperidin-3-yl)-1,3-dioxo-2,3-dihydro-1H-isoindol-4-yl]amino}-3,6,9,12-tetraoxatetradecan-1-yl)-2-methyl-8-[4-(trifluoromethyl)phenyl]-2H,8H-pyrazolo[3,4-b]indole-5-carboxamide] | < 100 nM | < 100 nM | 70 nM | 90 nM |
| Cn1cc2c3cc(C(=O)NCCOCCOCCOCCOCCNc4ccc5c(c4)C(=O)N(C4CCC(=O)NC4=O)C5=O)ccc3n(-c3ccc(C(F)(F)F)cc3)c2n1 (stereo not drawn) [Compound 42, N-(14-{[2-(2,6-dioxopiperidin-3-yl)-1,3-dioxo-2,3-dihydro-1H-isoindol-5-yl]amino}-3,6,9,12-tetraoxatetradecan-1-yl)-2-methyl-8-[4-(trifluoro-methyl)phenyl]-2H,8H-pyrazolo[3,4-b]indole-5-carboxamide] | < 100 nM | 100 to 1000 nM |  |  |
